Data taken from patent US12377077B2, “Methods and formulations to treat mitochondrial dysfunction” (The Board of Trustees of the Leland Stanford Junior …, priority 2018, dated 2025).
“Also recorded” adds a separate entry of the source.

Experiments:
[1] = test system: sodium iodate (SI) induced AMD model; experiment: Sodium iodate (SI) induced AMD model: funduscopy, H&E retinal sections, ONL thickness, ERG; format: in vivo, mice
Method: Methods: To generate an AMD model, mice were treated with 100 mg/kg of PT1 (or vehicle) 24 hrs and 12 hrs prior to SI (or vehicle) treatment, then treated every 24 hrs for 3 days post-SI. Both PT1 and SI were delivered by intraperitoneal (IP) injections and animals were phenotyped 3 days post-SI administration. Mice were anesthetized and their pupils dilated using 1% atropine sulfate, 2.5% phenylephrine hydrochloride, and 0.5% proparacaine hydrochloride. Funduscopy was performed using the Micron III small animal retinal imaging AD camera (Phoenix Research Laboratories, INC). Retinal function was evaluated by recording of dark- and light-adapted ERG (Espion E2 System, Diagnosys LLC). Mice were dark adapted overnight before ERG recording, and all procedures were performed in the dark or under dim red light. Mice were anesthetized and their pupils dilated as described above. For the ERG recordings, electrodes were placed on the center of cornea. A ground needle electrode was placed in the base of the tail, and reference needle electrode was placed subdermally between the eyes. The a-wave amplitude was measured from the baseline to the trough of the a-wave, and b-wave amplitude was measured from the trough of the a-wave to the peak of the b-wave.

[2] = test system: NGLY1 deficient fibroblasts; experiment: Oxygen consumption rate (OCR), XF96 extracellular flux analyzer; format: cell-based, human; conditions: PT1 vs DMSO, FIG. 6C
Method: Methods: Oxygen consumption rate (OCR) was measured using an XF96 extracellular flux analyzer (Seahorse Biosciences). Fibroblasts were seeded at 10×10^3 cell/well in 100 ul media containing 8.3 mM glucose and supplemented with 10% fetal bovine serum (FBS) (Fisher Scientific), 1% Penicillin-Streptomycin (10,000 U/mL)(Life Technologies), 1% glutaMAX (Life Technologies), 1% uridine (5 mg/ml) and 1% pyruvate (11 mg/ml) on an XF 96 well plate at 37° C., 5% CO2. The following day the medium was replaced with the mitochondrial stressor media (details above) with or without PT1, A-769662, and AICAR. After 48 hours the stressor media was replaced with 175 μl unbuffered XF base DMEM medium (Fisher Scientific) with the same constituents as the mitochondrial stressor medium and incubated at 37° C. for 30 min for equilibrium before the measurements. OCR Baseline measurements were measured three times, once every five minutes. After the experiment, cell content was estimated by Calcein AM fluorescence intensity (FI) and OCR was calculated as OCR divided by FI.

[3] = test system: SURF1-deficient fibroblasts; experiment: Cell viability by Calcein AM in mitochondrial stressor media; format: cell-based, human; conditions: SURF1-deficient fibroblasts; FIG. 2A
Method: (§1) Fibroblasts previously derived from four patients with primary mitochondrial disease (Surf1, Complex I, Cox10, Polg), three patients with NGLY1 deficiency and four normal controls were used for the study. All samples were obtained with informed consent and approved by the Stanford IRB. Fibroblasts were maintained in DMEM medium containing 8.3 mM glucose and supplemented with 10% fetal bovine serum (FBS)(Fisher Scientific), 1% Penicillin-Streptomycin (10,000 U/mL)(Life Technologies), 1% glutaMAX (Life Technologies), 1% uridine (5 mg/ml) and 1% pyruvate (11 mg/ml) at 37° C., 5% CO2. For the screening of various compounds, 15×10^3 cells/500 ul media were seeded in quadruplets on 24 well microtiter plates. The following day, the medium was removed, wells washed with PBS and replaced with a mitochondrial stressor media containing DMEM, 1% Penicillin-Streptomycin (10,000 U/mL)(Life Technologies), 10% FCS (Fisher Scientific), 1 mM Galactose (Sigma Aldrich), and 25 μM sodium azide with or without the following compounds: 1 mM AICAR (Medchem Express), 1 mM Metformin (Sigma Aldrich), 100 μM PT1 (Santa Cruz Biotechnology), 100 μ[…] Express). Following treatment with the various compounds, tissue cultures were analyzed for growth, oxygen consumption rate, and ATP levels. Methods: Cell growth was measured by a fluorometric method using Calcein AM (Anaspec). Mitochondrial stressor media was removed, wells washed with PBS and then incubated with 500 ul/well of 800 nM Calcein AM in PBS for 30 min at 37 C, 5% CO2. Cell viability was measured by values obtained using a 485 nm excitation with the Flouroskan Ascent Microplate Fluorometer (Thermo Scientific).

[4] = test system: COX10-deficient fibroblasts; experiment: as above; format: cell-based, human; conditions: FIG. 2B
Method: as §1

[5] = test system: POLG-deficient fibroblasts; experiment: as above; format: cell-based, human; conditions: FIG. 2D
Method: as §1

[6] = test system: NGLY1 deficient fibroblasts; experiment: Lipofuscin levels; format: cell-based, human; conditions: FIG. 8B
ischemic stroke model = experiment: Ischemic stroke model, transient middle cerebral artery occlusion, TTC staining; format: in vivo, mice; conditions: PT1 100 mg/kg IP vs vehicle
Method: Methods: To generate an ischemic stroke model, ischemic lesions were induced by transiently occluding the middle cerebral artery for 45 minutes, followed by reperfusion. Mice were then injected intraperitoneally with either 100 mg/kg of PT1 or vehicle in two doses, 1 hour and 24 hours post-occlusion, and sacrificed one hour later for terminal tissue collection. Isolated brains were placed in cold saline for 20 minutes, sliced in seven coronal slices (2 mm thick), and stained in a 1.0% 2,3,5-triphenyltetrazolium chloride (TTC) solution in saline at 37° C. for 30 minutes. The stained brain tissues were fixed in 10% formalin in phosphate-buffered saline. The images were captured using a CCD camera (Panasonic Corporation, Japan) and the unstained damaged areas were defined as infarcted tissue and were quantified using Image Pro Plus 4.1 software (Media Cybernetics, Silver Spring, MD).

In the case of `Cc1cc(-c2ccc(C=C3SC(=S)N(c4ccc(Cl)c(C(=O)O)c4)C3=O)o2)c([N+](=O)[O-])cc1C` [PT1], the “funduscopy, signs of retinal degeneration (white deposits)” value ([1]; +SI, +PT1 vs +SI, 100 mg/kg IP, FIG. 9A, 100 mg/kg) is reported as “improved signs of retinal degeneration; also recorded: Fewer white deposits”, the “H&E retinal sections: ONL thinning” value ([1]; +SI, +PT1 vs +SI, FIG. 9B) is reported as “protection against ONL thinning; also recorded: protects against ONL thinning” and the “H&E retinal sections: melanin debris” value ([1]; +SI, +PT1 vs +SI, FIG. 9B) is reported as “decreases melanin debris”. For the same compound, the “H&E retinal sections: photoreceptor IS/OS morphology” value ([1]; +SI, +PT1 vs +SI, FIG. 9B) was “prevents alterations in photoreceptor IS/OS morphology”, the ONL thickness ([1]; +SI, +PT1 vs +SI, FIG. 9C) was “greater thickness; also recorded: significantly improved” and the “electroretinography, rod responses (scotopic a-wave and b-wave)” value ([1]; +SI, +PT1 vs +SI, FIG. 9D) was “improved electrical response; also recorded: significantly increased rod responses”. The “ONL thickness, PT1 treatment alone” value ([1]; −SI, +PT1 vs −SI) was “does not alter ONL thickness”, the “funduscopy, PT1 treatment alone” value ([1]; −SI, +PT1 vs −SI) was “similar, normal tissue; also recorded: does not alter funduscopy results” and the “improvement in basal respiration (basal OCR)” value [2] was 16%. The survival / viability [3] was “largest improvement”, the survival / viability [4] was “improves survival; also recorded: significantly improved survival” and the survival / viability [5] was “improves survival; also recorded: significantly improved survival”. For the same compound, the “reduction of lipofuscin levels” value [6] was “approximately 36%”, the “percent of infarct tissue in brain” value (ischemic stroke model; FIG. 10A) was “marked improvement” and the “infarcted regions in TTC-stained brain slices” value (ischemic stroke model; FIGS. 10B-10C, 100 mg/kg) was “much lower amounts of ischemic tissue; also recorded: reduction in size of the infarcted regions”.
